System: SARS-CoV-2 strain FI
Assay: Plaque assay, infection of Vero cells with SARS-CoV-2 upon MEK inhibition
Type: cell-based
Conditions: MOI 0.01, 50 μM, 24 h, 36 h and 48 h
Procedure: To determine the virus titer a standard plaque assay was performed. Vero cells were infected with SARS-CoV-2 strain FI (MOI 0.01). 1 hour post infection, the cells were treated with 50 μM ATR-002 or the respective amount of DMSO as a control. The compounds were present in the culture medium during the complete infection time. After 24, 36 and 48 hpi, supernatants were collected and virus titers quantified by plaque assay below.
Vero E6 cells were seeded at 100% confluency in 6-well plates (Greiner Bio-One, Cat. 657-160). 6-fold dilutions of virus samples were prepared in Vero E6 infection medium (IMDM, Gibco, Cat. 12440-053) supplemented with 5% FCS (Capricorn, Cat. FBS-12A) and 1% Penicillin/Streptomycin (Sigma Aldrich Cat. P4333). The cells were washed once with Vero E6 infection medium before infection with 1 mL per well of the virus dilutions for 1 h at 37° C., 5% CO2. […] The virus titer was calculated based on the number of plaques per well and the respective dilution factor.

SMILES: O=C(O)c1ccc(F)c(F)c1Nc1ccc(I)cc1Cl [ATR-002, 2-(2-chloro-4-iodophenylamino)-N-3,4-difluoro benzoic acid]
- viral load (plaque assay): lower viral load than control cells

From patent US20230241014A1, “MEK-INHIBITORS FOR THE TREATMENT OR PREVENTION OF CORONAVIRUS INFECTIONS AND/OR COVID-19 CYTOKINE STORM” (priority 2020, published 2023)
